{"source": "paper PMC10681007", "about": "“Targeted Degradation of XIAP is Sufficient and Specific to Induce Apoptosis in MYCN-overexpressing High-risk Neuroblastoma” (Cancer Research Communications, 2023)", "assay_type_in_all_cases": "cell-based, Human", "key": {"BE(2)-C [1]": {"test_system": "BE(2)-C", "experiment": "RealTime-Glo MT cell viability assay", "settings": "Homo sapiens", "procedure": "(§1) Cell viability was measured in real time using RealTime-Glo MT Cell Viability Assay as according to manufacturer's instructions from Promega. Cells were seeded at 1 × 10^4 cells per well and treated with a range of doses of indicated antagonists, followed by continuous bioluminescence reading every 24 hours for 3 days using luminescent plate reader, Varioskan (SkanIT software). IC50 was determined using GraphPad Prism software.\n(§2) To determine their efficacy in neuroblastoma, a panel of neuroblastoma cell lines including neuroblastoma patient-derived cell lines and noncancerous normal tissue-derived cell lines were treated with increasing doses of each antagonist (0–100 µmol/L), followed by real-time measurement of cell viability every 24 for 72 hours."}, "CHP212": {"test_system": "CHP212", "experiment": "RealTime-Glo MT cell viability assay", "settings": "Homo sapiens, CHP-212", "procedure": "as §1, §2"}, "IMR-32": {"test_system": "IMR-32", "experiment": "RealTime-Glo MT cell viability assay", "settings": "Homo sapiens", "procedure": "as §1, §2"}, "KELLY [2]": {"test_system": "KELLY", "experiment": "RealTime-Glo MT cell viability assay", "settings": "Homo sapiens", "procedure": "as §1, §2"}, "NB1": {"test_system": "NB1", "experiment": "RealTime-Glo MT cell viability assay", "settings": "Homo sapiens", "procedure": "as §1, §2"}, "[3]": {"test_system": "NBL-07-0317 patient-derived neuroblastoma cells", "experiment": "RealTime-Glo MT cell viability assay", "settings": "Homo sapiens, Neuroblastoma cell", "procedure": "as §1, §2"}, "[4]": {"test_system": "NBL01-1116 patient-derived neuroblastoma cells", "experiment": "RealTime-Glo MT cell viability assay", "settings": "Homo sapiens, Neuroblastoma cell", "procedure": "as §1, §2"}, "[5]": {"test_system": "NBL16-0118 patient-derived neuroblastoma cells", "experiment": "RealTime-Glo MT cell viability assay", "settings": "Homo sapiens, Neuroblastoma cell", "procedure": "as §1, §2"}, "[6]": {"test_system": "NBL27-0218A patient-derived neuroblastoma cells", "experiment": "RealTime-Glo MT cell viability assay", "settings": "Homo sapiens, Neuroblastoma cell", "procedure": "as §1, §2"}, "NLF": {"test_system": "NLF", "experiment": "RealTime-Glo MT cell viability assay", "settings": "Homo sapiens", "procedure": "as §1, §2"}, "SK-N-AS [7]": {"test_system": "SK-N-AS", "experiment": "RealTime-Glo MT cell viability assay", "settings": "Homo sapiens", "procedure": "as §1, §2"}, "SK-N-SH": {"test_system": "SK-N-SH", "experiment": "RealTime-Glo MT cell viability assay", "settings": "Homo sapiens", "procedure": "as §1, §2"}, "HS5 (bone marrow origin)": {"test_system": "HS5 (bone marrow origin)", "experiment": "RealTime-Glo MT cell viability assay, noncancerous normal cells", "settings": "Homo sapiens", "procedure": "as §1, §2\n(§3) To evaluate this, noncancerous normal tissue-derived cell lines THLE3 and HS5 were utilized to evaluate toxicity and tolerability."}, "THLE3 (liver origin)": {"test_system": "THLE3 (liver origin)", "experiment": "RealTime-Glo MT cell viability assay, noncancerous normal cells", "settings": "Homo sapiens", "procedure": "as §1, §2, §3"}, "[8]": {"test_system": "neuroblastoma cells across the panel of cell lines", "experiment": "Cell viability, IC50 range across the panel", "settings": "Homo sapiens, Neuroblastoma cell; range over cell lines, doses 0–100 µmol/L, viability every 24 for 72 hours; read-out: IC50 against neuroblastoma cells across the panel of cell lines", "procedure": "as §1, with “([…]” for “(SkanIT”, “software. To determine their efficacy in neuroblastoma, a panel of neuroblastoma cell lines including neuroblastoma patient-derived cell lines and noncancerous normal tissue-derived cell lines were treated with increasing doses of each antagonist (0-100 μmol/L), followed by real-time measurement of cell viability every 24 for 72 hours. […] Supplementary Table S2; Fig. 2A). […] Fig. 2A).” for “software.”"}, "THLE3 and HS5": {"test_system": "THLE3 and HS5", "experiment": "Toxicity and tolerability in noncancerous normal tissue-derived cell lines", "settings": "THLE3 and HS5 versus neuroblastoma cells", "procedure": "as §1\nTo evaluate this, noncancerous normal tissue-derived cell lines THLE3 and HS5 were utilized to evaluate toxicity and tolerability. […] On the basis of their overall potency and specificity toward neuroblastoma cells over noncancerous normal cells, A4, B3, and BV6 were selected as the more efficacious antagonists to be studied further in subsequent experiments (Fig. 2A)."}, "BE(2)-C [9]": {"test_system": "BE(2)-C", "experiment": "Drug interactions assay (Chou-Talalay CI, DRI)", "settings": "48 hours", "procedure": "(§4) Drug interactions between XIAP-specific antagonist A4 and vincristine or topotecan were determined using the combination index (CI) by Chou and Talalay which was established on the basis of the mass-action law principle to derive the median-effect equation ([25]). […] Cell viability was measured and CI and dose reduction index (DRI) values were quantified using the CompuSyn software by Chou–Talalay. Areas under the dose–response curves were calculated using the trapezoidal method and compared using paired t test.\n(§5) For treatment of high-risk neuroblastoma, current standard-of-care utilizes intensive multimodal therapy involving combinations of multiple cytotoxic agents. […] To analyze potential drug interactions, treatment of BE(2)-C and KELLY cells with A4 in combination with either vincristine or topotecan was examined. Using Chou–Talalay method, the drug interaction effect/type determined by the drug combination (CI) index is as follows: CI <1 (synergistic effect); CI = 1 (additive effect); CI >1 (antagonistic effect).\n(§6) CI was generated using CompuSyn software by Chou–Talalay ([25]). CI60–90 represents the average CI at 60%–90% cell death. CI <1 denotes synergistic effect; CI = 1 denotes addictive effect and CI >1 denotes antagonistic effect. […] DRI was generated using CompuSyn software by Chou–Talalay. DRI60–90 represents the average DRI at 60%–90% cell death. DRI <1 denotes unfavorable dose reduction and DRI >1 denotes favorable dose reduction."}, "KELLY [10]": {"test_system": "KELLY", "experiment": "Drug interactions assay (Chou-Talalay CI, DRI)", "settings": "48 hours", "procedure": "as §4, §5, §6"}, "SK-N-AS [11]": {"test_system": "SK-N-AS", "experiment": "Drug interactions assay (Chou-Talalay)", "settings": "in combination with A4", "procedure": "as §4\nDRI <1 denotes unfavorable dose reduction and DRI >1 denotes favorable dose reduction."}}, "note": "Where a name gives a salt, the structure may show the parent alone.", "data": [{"smiles": "CN[C@@H](C)C(=O)N[C@H](C(=O)N1CCC[C@H]1c1nc(C(=O)c2ccc(F)cc2)cs1)C1CCCCC1", "note": "[LCL161]", "values": [{"measurement": "IC50", "setting": "BE(2)-C [1]; 24 hours", "value": "> 60", "unit": "µM"}, {"measurement": "IC50", "setting": "BE(2)-C [1]; 48 hours", "value": 42.5, "unit": "µM"}, {"measurement": "IC50", "setting": "BE(2)-C [1]; 72 hours", "value": 32.5, "unit": "µM"}, {"measurement": "IC50", "setting": "CHP212; CHP212, 24 hours", "value": 42, "unit": "µM"}, {"measurement": "IC50", "setting": "CHP212; CHP212, 48 hours", "value": 33, "unit": "µM"}, {"measurement": "IC50", "setting": "CHP212; CHP212, 72 hours", "value": 31.2, "unit": "µM"}, {"measurement": "IC50", "setting": "IMR-32; IMR-32, 24 hours", "value": "> 60", "unit": "µM"}, {"measurement": "IC50", "setting": "IMR-32; IMR-32, 48 hours", "value": 30, "unit": "µM"}, {"measurement": "IC50", "setting": "IMR-32; IMR-32, 72 hours", "value": 19, "unit": "µM"}, {"measurement": "IC50", "setting": "KELLY [2]; 24 hours", "value": 48.2, "unit": "µM"}, {"measurement": "IC50", "setting": "KELLY [2]; 48 hours", "value": 27.6, "unit": "µM"}, {"measurement": "IC50", "setting": "KELLY [2]; 72 hours", "value": 21.2, "unit": "µM"}, {"measurement": "IC50", "setting": "NB1; NB1, 24 hours", "value": "> 60", "unit": "µM"}, {"measurement": "IC50", "setting": "NB1; NB1, 48 hours", "value": 46.5, "unit": "µM"}, {"measurement": "IC50", "setting": "NB1; NB1, 72 hours", "value": 27.4, "unit": "µM"}, {"measurement": "IC50", "setting": "[3]; NBL-07-0317, 24 hours", "value": 33.6, "unit": "µM"}, {"measurement": "IC50", "setting": "[3]; NBL-07-0317, 48 hours", "value": 31.8, "unit": "µM"}, {"measurement": "IC50", "setting": "[3]; NBL-07-0317, 72 hours", "value": 30, "unit": "µM"}, {"measurement": "IC50", "setting": "[4]; NBL01-1116, 24 hours", "value": 42, "unit": "µM"}, {"measurement": "IC50", "setting": "[4]; NBL01-1116, 48 hours", "value": 36.4, "unit": "µM"}, {"measurement": "IC50", "setting": "[4]; NBL01-1116, 72 hours", "value": 36, "unit": "µM"}, {"measurement": "IC50", "setting": "[5]; NBL16-0118, 24 hours", "value": 34, "unit": "µM"}, {"measurement": "IC50", "setting": "[5]; NBL16-0118, 48 hours", "value": 27.5, "unit": "µM"}, {"measurement": "IC50", "setting": "[5]; NBL16-0118, 72 hours", "value": 22.5, "unit": "µM"}, {"measurement": "IC50", "setting": "[6]; 24 hours", "value": 39, "unit": "µM"}, {"measurement": "IC50", "setting": "[6]; 48 hours", "value": 32.5, "unit": "µM"}, {"measurement": "IC50", "setting": "[6]; 72 hours", "value": 28.5, "unit": "µM"}, {"measurement": "IC50", "setting": "NLF; 24 hours", "value": 32.8, "unit": "µM"}, {"measurement": "IC50", "setting": "NLF; 48 hours", "value": 30.2, "unit": "µM"}, {"measurement": "IC50", "setting": "NLF; 72 hours", "value": 28.5, "unit": "µM"}, {"measurement": "IC50", "setting": "SK-N-AS [7]; 24 hours", "value": 34, "unit": "µM"}, {"measurement": "IC50", "setting": "SK-N-AS [7]; 48 hours", "value": 22.5, "unit": "µM"}, {"measurement": "IC50", "setting": "SK-N-AS [7]; 72 hours", "value": 15.7, "unit": "µM"}, {"measurement": "IC50", "setting": "SK-N-SH; 24 hours", "value": 55.4, "unit": "µM"}, {"measurement": "IC50", "setting": "SK-N-SH; 48 hours", "value": 44, "unit": "µM"}, {"measurement": "IC50", "setting": "SK-N-SH; 72 hours", "value": 33, "unit": "µM"}, {"measurement": "IC50", "setting": "HS5 (bone marrow origin); HS5, 24 hours", "value": 30, "unit": "µM"}, {"measurement": "IC50", "setting": "HS5 (bone marrow origin); HS5, 48 hours", "value": 18, "unit": "µM"}, {"measurement": "IC50", "setting": "HS5 (bone marrow origin); HS5, 72 hours", "value": 15.5, "unit": "µM"}, {"measurement": "IC50", "setting": "THLE3 (liver origin); THLE3, 24 hours", "value": "> 60", "unit": "µM"}, {"measurement": "IC50", "setting": "THLE3 (liver origin); THLE3, 48 hours", "value": 24, "unit": "µM"}, {"measurement": "IC50", "setting": "THLE3 (liver origin); THLE3, 72 hours", "value": 14.5, "unit": "µM"}, {"measurement": "IC50", "setting": "[8]", "value": "20 to 60", "unit": "µM"}, {"measurement": "toxicity to noncancerous cells", "setting": "THLE3 and HS5", "value": "more toxic toward noncancerous cells than neuroblastoma cells"}]}, {"smiles": "CC[C@@]1(O)C(=O)OCc2c1cc1n(c2=O)Cc2cc3c(CN(C)C)c(O)ccc3nc2-1", "note": "[Topotecan, Topotecan hydrochloride]", "values": [{"measurement": "AUC of dose–response curve", "setting": "BE(2)-C [9]; topotecan dose axis", "value": "164.6±8.6", "unit": "nM* luminescence"}, {"measurement": "AUC of dose–response curve", "setting": "KELLY [10]; topotecan dose axis", "value": "352.1±28.9", "unit": "nM* luminescence"}]}, {"smiles": "CC[C@]1(O)C[C@H]2CN(CCc3c([nH]c4ccccc34)[C@@](C(=O)OC)(c3cc4c(cc3OC)N(C=O)[C@H]3[C@@](O)(C(=O)OC)[C@H](OC(C)=O)[C@]5(CC)C=CCN6CC[C@]43[C@@H]65)C2)C1", "note": "[Vincristine, Vincristine sulfate]", "values": [{"measurement": "AUC of dose–response curve", "setting": "BE(2)-C [9]; vincristine dose axis", "value": "9.8±0.2", "unit": "pM* luminescence"}, {"measurement": "AUC of dose–response curve", "setting": "KELLY [10]; vincristine dose axis", "value": "37.5±3.9", "unit": "pM* luminescence"}, {"measurement": "drug interaction with A4", "setting": "SK-N-AS [11]", "value": "only additive effect"}]}]}
